# ChEMBL document CHEMBL1144726, “"Virtual fragment linking": an approach to identify potent binders from low affinity fragment hits” (J Med Chem, 2008)
# Molecular target: Nitric oxide synthase, inducible (Homo sapiens, UniProt P35228)
# Sequence (P35228 whole entry): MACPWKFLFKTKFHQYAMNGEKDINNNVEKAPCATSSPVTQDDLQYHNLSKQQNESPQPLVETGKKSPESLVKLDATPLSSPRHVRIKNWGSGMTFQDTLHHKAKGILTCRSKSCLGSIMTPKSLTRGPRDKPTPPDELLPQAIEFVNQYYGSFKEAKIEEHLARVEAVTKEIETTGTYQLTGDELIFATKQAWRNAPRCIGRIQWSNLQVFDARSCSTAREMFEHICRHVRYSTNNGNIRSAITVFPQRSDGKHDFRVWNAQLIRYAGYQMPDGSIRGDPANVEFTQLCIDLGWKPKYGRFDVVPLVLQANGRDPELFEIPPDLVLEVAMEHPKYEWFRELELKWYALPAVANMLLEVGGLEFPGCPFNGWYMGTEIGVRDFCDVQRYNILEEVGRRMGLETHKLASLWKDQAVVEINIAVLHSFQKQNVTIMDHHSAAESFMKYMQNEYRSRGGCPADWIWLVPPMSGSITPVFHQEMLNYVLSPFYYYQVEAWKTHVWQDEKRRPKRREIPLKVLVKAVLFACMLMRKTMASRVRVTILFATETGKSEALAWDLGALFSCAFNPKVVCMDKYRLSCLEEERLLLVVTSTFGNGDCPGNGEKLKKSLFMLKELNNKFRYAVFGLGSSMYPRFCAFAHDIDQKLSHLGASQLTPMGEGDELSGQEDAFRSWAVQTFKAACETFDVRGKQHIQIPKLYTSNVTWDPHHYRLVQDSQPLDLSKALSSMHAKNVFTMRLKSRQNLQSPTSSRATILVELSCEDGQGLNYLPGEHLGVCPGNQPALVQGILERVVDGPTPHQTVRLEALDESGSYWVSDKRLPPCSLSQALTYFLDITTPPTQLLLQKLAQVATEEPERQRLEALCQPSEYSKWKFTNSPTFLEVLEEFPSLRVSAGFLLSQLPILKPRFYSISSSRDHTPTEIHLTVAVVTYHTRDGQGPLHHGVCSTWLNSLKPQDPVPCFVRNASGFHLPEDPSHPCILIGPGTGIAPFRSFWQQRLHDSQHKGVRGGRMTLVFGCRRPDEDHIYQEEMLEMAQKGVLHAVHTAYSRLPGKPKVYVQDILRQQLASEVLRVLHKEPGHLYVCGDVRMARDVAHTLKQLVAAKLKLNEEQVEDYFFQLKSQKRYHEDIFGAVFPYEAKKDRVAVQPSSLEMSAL
row,IC50,Compound
1,1200 nM,Cc1cccc2c1C(N)=NC(C1CCC1)N2 (stereo not given)

# Molecular target: Estrogen receptor beta (Homo sapiens, UniProt Q92731)
# Sequence (Q92731 whole entry): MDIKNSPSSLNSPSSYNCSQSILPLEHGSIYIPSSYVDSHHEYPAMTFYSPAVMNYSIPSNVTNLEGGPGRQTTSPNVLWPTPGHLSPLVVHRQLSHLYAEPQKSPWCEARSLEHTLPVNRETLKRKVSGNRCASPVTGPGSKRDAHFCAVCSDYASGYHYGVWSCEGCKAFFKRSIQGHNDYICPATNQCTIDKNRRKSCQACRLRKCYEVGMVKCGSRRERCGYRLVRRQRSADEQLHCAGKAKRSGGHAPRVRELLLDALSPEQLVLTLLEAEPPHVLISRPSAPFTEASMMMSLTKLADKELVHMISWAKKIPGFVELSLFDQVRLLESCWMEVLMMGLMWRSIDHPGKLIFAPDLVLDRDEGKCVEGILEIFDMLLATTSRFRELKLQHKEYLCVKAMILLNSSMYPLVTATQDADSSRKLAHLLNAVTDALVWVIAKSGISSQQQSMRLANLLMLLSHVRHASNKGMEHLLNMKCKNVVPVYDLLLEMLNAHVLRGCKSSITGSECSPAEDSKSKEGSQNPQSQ
row,Compound,IC50
1,Oc1ccc2nn(-c3ccccc3)cc2c1,10000 nM
2,Cc1cc(O)ccc1-c1ccccc1,4000 nM
3,Oc1ccc(-c2ccccc2)cc1Cl,3100 nM
4,Cc1cc(-c2cccc(Cl)c2)ccc1O,2100 nM
5,N#Cc1ccccc1-c1ccc(O)cc1,1800 nM
6,COc1ccc(-c2ccc(O)cc2)cc1,2400 nM

# Results, then the compound that gave them:
row,IC50,Compound
1,2900 nM,Nc1ccc(-c2ccc(O)cc2)cc1Cl
2,1200 nM,Oc1ccc(-c2cccc(F)c2)cc1
3,1100 nM,Oc1ccc(-n2nc3ccccc3c2Cl)cc1
